ChEMBL document CHEMBL2331144, “Synthesis and anticancer activity of analogues of phenstatin, with a phenothiazine A-ring, as a new class of microtubule-targeting agents” (Bioorg Med Chem Lett, 2013)

What was measured:
MCF7 [1] = assay: Growth inhibition of human MCF7 cells after 48 hrs by sulforhodamine B assay; format: functional; details: MCF7, 48 h
OVCAR-3 = assay: Growth inhibition of human OVCAR3 cells after 48 hrs by sulforhodamine B assay; format: functional; details: OVCAR-3, 48 h
[2] = Inhibition of sheep brain tubulin polymerization using DAPI by fluorimetry; design: species or system Ovis aries
NCI-H460 = assay: Growth inhibition of human NCI-H460 cells after 48 hrs by sulforhodamine B assay; format: functional; details: NCI-H460, 48 h
Ovis aries = organism: Ovis aries; assay: Inhibition of sheep brain tubulin polymerization at 100 uM using DAPI by fluorimetry
SF-295 [3] = assay: Growth inhibition of human SF295 cells after 48 hrs by sulforhodamine B assay; format: functional; details: SF-295, 48 h
DU-145 = assay: Growth inhibition of human DU145 cells after 48 hrs by sulforhodamine B assay; format: functional; details: DU-145, 48 h
A498 [4] = assay: Growth inhibition of human A498 cells after 48 hrs by sulforhodamine B assay; format: functional; details: A498, 48 h
HOP-62 = assay: Growth inhibition of human HOP62 cells at 10 uM after 48 hrs by sulforhodamine B assay; format: functional; details: HOP-62, 48 h, read-out: GI
A498 [5] = assay: Growth inhibition of human A498 cells at 10 uM after 48 hrs by sulforhodamine B assay; format: functional; details: A498, 48 h, read-out: GI
HOP-92 = assay: Growth inhibition of human HOP92 cells at 10 uM after 48 hrs by sulforhodamine B assay; format: functional; details: HOP-92, 48 h, read-out: GI
Malme-3M = assay: Growth inhibition of human MALME-3M cells at 10 uM after 48 hrs by sulforhodamine B assay; format: functional; details: read-out: GI
MDA-MB-468 = assay: Growth inhibition of human MDA-MB-468 cells at 10 uM after 48 hrs by sulforhodamine B assay; format: functional; details: MDA-MB-468, 48 h, read-out: GI
HCT-15 = assay: Growth inhibition of human HCT15 cells at 10 uM after 48 hrs by sulforhodamine B assay; format: functional; details: HCT-15, 48 h, read-out: GI
NCI-H522 = assay: Growth inhibition of human NCI-H522 cells at 10 uM after 48 hrs by sulforhodamine B assay; format: functional; details: NCI-H522, 48 h, read-out: GI
CCRF-CEM = assay: Growth inhibition of human CCRF-CEM cells at 10 uM after 48 hrs by sulforhodamine B assay; format: functional; details: read-out: GI
RXF 393 = assay: Growth inhibition of human RXF393 cells at 10 uM after 48 hrs by sulforhodamine B assay; format: functional; details: RXF 393, 48 h, read-out: GI
COLO 205 = assay: Growth inhibition of human COLO205 cells at 10 uM after 48 hrs by sulforhodamine B assay; format: functional; details: COLO 205, 48 h, read-out: GI
UACC-62 = assay: Growth inhibition of human UACC62 cells at 10 uM after 48 hrs by sulforhodamine B assay; format: functional; details: UACC-62, 48 h, read-out: GI
MDA-MB-435 = assay: Growth inhibition of human MDA-MB-435 cells at 10 uM after 48 hrs by sulforhodamine B assay; format: functional; details: MDA-MB-435, 48 h, read-out: GI
SF-295 [6] = assay: Growth inhibition of human SF295 cells at 10 uM after 48 hrs by sulforhodamine B assay; format: functional; details: SF-295, 48 h, read-out: GI
HCT-116 = assay: Growth inhibition of human HCT116 cells at 10 uM after 48 hrs by sulforhodamine B assay; format: functional; details: HCT-116, 48 h, read-out: GI
UO-31 = assay: Growth inhibition of human UO31 cells at 10 uM after 48 hrs by sulforhodamine B assay; format: functional; details: UO-31, 48 h, read-out: GI
786-0 = assay: Growth inhibition of human 786-0 cells at 10 uM after 48 hrs by sulforhodamine B assay; format: functional; details: 786-0, 48 h, read-out: GI
LOX IMVI = assay: Growth inhibition of human LOXIMVI cells at 10 uM after 48 hrs by sulforhodamine B assay; format: functional; details: read-out: GI
CAKI-1 = assay: Growth inhibition of human CAKI-1 cells at 10 uM after 48 hrs by sulforhodamine B assay; format: functional; details: CAKI-1, 48 h, read-out: GI
MDA-MB-231 = assay: Growth inhibition of human MDA-MB-231 cells at 10 uM after 48 hrs by sulforhodamine B assay; format: functional; details: MDA-MB-231, 48 h, read-out: GI
HL-60(TB) = assay: Growth inhibition of human HL-60(TB) cells at 10 uM after 48 hrs by sulforhodamine B assay; format: functional; details: HL-60, 48 h, read-out: GI
KM12 = assay: Growth inhibition of human KM12 cells at 10 uM after 48 hrs by sulforhodamine B assay; format: functional; details: KM12, 48 h, read-out: GI
MCF7 [7] = assay: Growth inhibition of human MCF7 cells at 10 uM after 48 hrs by sulforhodamine B assay; format: functional; details: MCF7, 48 h, read-out: GI
[8] = Growth inhibition of human NCI-ADR-RES cells at 10 uM after 48 hrs by sulforhodamine B assay; format: functional; details: read-out: GI
RPMI-8226 = assay: Growth inhibition of human RPMI8226 cells at 10 uM after 48 hrs by sulforhodamine B assay; format: functional; details: RPMI-8226, 48 h, read-out: GI
MOLT-4 = assay: Growth inhibition of human MOLT4 cells at 10 uM after 48 hrs by sulforhodamine B assay; format: functional; details: MOLT-4, 48 h, read-out: GI
SNB-75 = assay: Growth inhibition of human SNB75 cells at 10 uM after 48 hrs by sulforhodamine B assay; format: functional; details: SNB-75, 48 h, read-out: GI
PC-3 = assay: Growth inhibition of human PC3 cells at 10 uM after 48 hrs by sulforhodamine B assay; format: functional; details: PC-3, 48 h, read-out: GI
SK-MEL-5 = assay: Growth inhibition of human SK-MEL-5 cells at 10 uM after 48 hrs by sulforhodamine B assay; format: functional; details: SK-MEL-5, 48 h, read-out: GI
T47D = assay: Growth inhibition of human T47D cells at 10 uM after 48 hrs by sulforhodamine B assay; format: functional; details: read-out: GI
OVCAR-4 = assay: Growth inhibition of human OVCAR4 cells at 10 uM after 48 hrs by sulforhodamine B assay; format: functional; details: OVCAR-4, 48 h, read-out: GI

COc1ccc(C(=O)c2cc(OC)c(OC)c(OC)c2)cc1O [PHENSTATIN] gave a GI50 (MCF7 [1]) of 437 nM, a GI50 (OVCAR-3) of 2 nM and an IC50 [2] of 3430 nM. For the same molecule, the GI50 (NCI-H460) was 6 nM, the inhibition (Ovis aries) was 99% and the GI50 (SF-295 [3]) was 52 nM. The GI50 (DU-145) was 34 nM and the GI50 (A498 [4]) was 380 nM.
Molecule CCOC(=O)c1cc(C(=O)N2c3ccccc3Sc3ccccc32)n2ccc(N(C)C)cc12 has an inhibition of growth at 10 µM (HOP-62) of 29.5%, an inhibition of growth at 10 µM (A498 [5]) of 4.4% and an inhibition of growth at 10 µM (HOP-92) of 18.4%. It also gave an inhibition of growth at 10 µM (Malme-3M) of 22.7%, an inhibition of growth at 10 µM (MDA-MB-468) of 19.7% and an inhibition of growth at 10 µM (HCT-15) of 18.3%. It also gave an inhibition of growth at 10 µM (NCI-H522) of 26.2%, an inhibition of growth at 10 µM (CCRF-CEM) of 27.1% and an inhibition of growth at 10 µM (RXF 393) of 33.3%. The inhibition of growth at 10 µM (COLO 205) was 0%, the inhibition of growth at 10 µM (UACC-62) was 27.7% and the inhibition of growth at 10 µM (MDA-MB-435) was 74.5%. For the same molecule, the inhibition of growth at 10 µM (SF-295 [6]) was 22.8%, the inhibition of growth at 10 µM (HCT-116) was 12.1% and the inhibition of growth at 10 µM (UO-31) was 0%. For the same molecule, the inhibition (Ovis aries) was 42%, the inhibition of growth at 10 µM (786-0) was 0% and the inhibition of growth at 10 µM (LOX IMVI) was 20.2%. It also gave an inhibition of growth at 10 µM (CAKI-1) of 23.2%, an inhibition of growth at 10 µM (MDA-MB-231) of 7.2% and an inhibition of growth at 10 µM (HL-60(TB)) of 6.7%. The inhibition of growth at 10 µM (KM12) was 26.4%, the inhibition of growth at 10 µM (MCF7 [7]) was 18.5% and the inhibition of growth at 10 µM [8] was 29.4%. For the same molecule, the inhibition of growth at 10 µM (RPMI-8226) was 0%, the inhibition of growth at 10 µM (MOLT-4) was 15.3% and the inhibition of growth at 10 µM (SNB-75) was 30.1%. For the same molecule, the inhibition of growth at 10 µM (PC-3) was 50.7%, the inhibition of growth at 10 µM (SK-MEL-5) was 23.2% and the inhibition of growth at 10 µM (T47D) was 14.7%. The inhibition of growth at 10 µM (OVCAR-4) was 9.5%.
